This passage reports cytotoxicity results from ChEMBL document CHEMBL3507680, “University of Dundee, Gates Library screen for HepG2 cell viability”.

The data set in a line: Human HepG2 cell viability assay in 384 well format. The format is toxicity, cell-based. The note with it: HepG2 cells, read-out: Inhibition. More on the design: dose 125 nL, time 70.5 hour; concentration not given beside the values.
Turning to `Cc1cc2ncn(C(=O)N3CCOCC3)c2cc1C`, the cytotoxicity at 70.5 h is -5.67%. With `CC1(C)Oc2ccc(S(=O)(=O)NCCCn3ccnc3)cc2NC1=O`, the cytotoxicity at 70.5 h was 28.6%.

As to `Cn1cc(C(=O)NC[C@@H]2OC[C@H]3CN(S(C)(=O)=O)CC[C@H]32)cn1`, the cytotoxicity at 70.5 h was -3.04%.

Regarding `c1nc2c(c(C3CC3)n1)CCN(Cc1ccoc1)CC2`, the cytotoxicity at 70.5 h amounted to 18.1%.

As to `COCC1COCCC12CCN(C(=O)CCc1ccccc1)CC2` (configuration not stated), the cytotoxicity at 70.5 h stood at 5.59%. With `CCC(=O)N1CCC(c2nc3ccc(NC(C)C)cn3n2)CC1`, the cytotoxicity at 70.5 h was 4.46%. The same measure for `C[C@@H]1C[C@@H]2CCN(C(=O)c3cnccn3)C[C@H]2O1`: -0.399%; for `CCn1nnc2c1C(COC)CN(C(=O)Cc1cccs1)C2` (configuration not stated): -7.34%.

Consider `c1cnc(N2C[C@H]3CCN(c4cccnc4)C[C@H]3C2)nc1`, for which the cytotoxicity at 70.5 h was -6.6%. To `COCCO[C@@H]1CCN(C(=O)c2ccc(C)o2)[C@@H]1Cc1cnn(C)c1` belongs -2.12%; to `Cc1noc([C@H]2CC[C@@H]3[C@@H](CCN3S(C)(=O)=O)O2)n1`, 1.24%.

`Cc1cccc(CN2CC[C@@H]3[C@@H]2CCN3C(=O)c2cnoc2C)n1`: the cytotoxicity at 70.5 h stood at 0.0209%.

With `CC(C)NC(=O)N1CCN(C(=O)N(C)C)CC2(CC(=O)N(C)C2)C1` (configuration not stated), the cytotoxicity at 70.5 h is -6.79%. For `CCC1=N[C@@]2(CC[C@@H]3CN(C(=O)NC(C)C)C[C@@H]32)C(=O)N1C`, the cytotoxicity at 70.5 h was -1.59%. On to `CC1CCc2nn(CCNC(=O)C3CCCC3)c(=O)cc2C1` (configuration not stated), for which the cytotoxicity at 70.5 h was -3.14%. As to `CS(=O)(=O)N1CC(c2nc(N)ncc2-c2ccc(F)cc2)C1`, the cytotoxicity at 70.5 h is -2.15%. To `CNC(=O)C1(CCCc2ccccn2)CN(Cc2scnc2C)C1` belongs 27.6%; to `COCCNc1ccc(CC2CCNC2)cn1` (configuration not stated), -5.62%.

Regarding `CC(=O)N1CC(c2n[nH]c3ncccc23)C1`, the cytotoxicity at 70.5 h was 28.9%.

For the molecule `Cc1cc(N2CCN(C(=O)c3cccnc3)CC2)nc(C)n1`, the cytotoxicity at 70.5 h was -2.72%. Regarding `O=C(NCCO)c1sc2ncccc2c1C1CN(C2CCCC2)CCO1` (configuration not stated), the cytotoxicity at 70.5 h is -3.18%. To `Cc1nccn1CC1CCCN(S(=O)(=O)c2cnn(C)c2)C1` (configuration not stated) belongs -2.81%. The same measure for `Fc1cccc(Oc2nccnc2C2CCN(C3CCOCC3)CC2)c1`: 0.625%; for `O=C(C1CC1)N1C[C@H]2CCCN(S(=O)(=O)c3ccc(Cl)s3)[C@H]2C1`: -0.267%; for `Cc1cnc2[nH]c(C(F)(F)F)c(CN3CCSCC3)c2c1`: -0.92%.

Take `Cc1cc(C)n(CC(=O)N2CCCC(c3cc4cccnc4[nH]3)C2)n1` (configuration not stated): the cytotoxicity at 70.5 h is -3.24%. The same measure for `CC(C)C(NC(=O)c1cnc(N2CCOCC2)nc1)c1cccs1` (configuration not stated): 7.3%; for `Cc1ccc2nc(C)cc(NCCNS(=O)(=O)c3cn(C)nc3C)c2c1`: 0.534%; for `OC1(c2ccccc2F)CCN(Cc2ccccc2N2CCCC2)CC1`: 12.6%. For `Cc1c(CN2CCCC(O)C2)[nH]c2ccc(F)cc12` (configuration not stated), the cytotoxicity at 70.5 h is 0.643%. Consider `COc1ccc2c(c1)NC(C1CCN(C(=O)C(C)C)CC1)NS2(=O)=O` (configuration not stated), for which the cytotoxicity at 70.5 h was -3.05%.

`CCOCCCNS(=O)(=O)c1ccc2c(c1)NC(=O)C(C)O2` (configuration not stated): the cytotoxicity at 70.5 h was 12.7%. The same measure for `CC(C)(C)OC(=O)N[C@@H]1C[C@@H](O)CN(C(=O)c2cccc(F)c2)C[C@H]1O`: -3.14%; for `CNc1cncc(C2CCN(S(C)(=O)=O)CC2)n1`: -2.96%. The same measure for `Cc1cc(Oc2ccccc2)nc(C2CCCCN2)n1` (configuration not stated): 13.4%.

With `Cc1noc(C)c1CC(=O)NCC1(O)CCCN(c2ccccn2)C1` (configuration not stated), the cytotoxicity at 70.5 h was 13.4%. For the molecule `NC(=O)c1cc(CC2CCCN(Cc3cnccn3)CC2)ncn1` (configuration not stated), the cytotoxicity at 70.5 h was -2.22%.

For the molecule `COCCNCc1cc2cc(C)cc(C)c2[nH]c1=O`, the cytotoxicity at 70.5 h was -4.55%. Regarding `COCC(=O)N1CC(c2n[nH]cc2C)C1`, the cytotoxicity at 70.5 h is -6.26%. To `Fc1ccccc1Oc1nccnc1C1CCCN(C2CCOCC2)C1` (configuration not stated) belongs -9%. The same measure for `Cc1cc(O)cc(C2CCCN2C(=O)c2ccn(C)n2)n1` (configuration not stated): 10.2%; for `Cc1cc(=O)[nH]c(=O)n1Cc1ncc(-c2ccccc2C(=O)O)s1`: -0.441%; for `COCCN1CCC(c2nc3cc(C)ccc3[nH]2)CC1`: -8.34%. On to `Cc1cc(C)nc(C2CCN(C3CCOCC3)C2)n1` (configuration not stated), for which the cytotoxicity at 70.5 h is -11.5%. On to `O=C(O)c1ccccc1-c1ccc(Cn2c(=O)cc[nH]c2=O)cc1`, for which the cytotoxicity at 70.5 h is -0.721%. As to `Oc1nc(C2CCN(Cc3ccccn3)CC2)cc2ccccc12`, the cytotoxicity at 70.5 h turned out to be 32.3%. As for `COc1cccc(CN2CCCC2c2cncc(Nc3nncs3)n2)c1` (configuration not stated), the cytotoxicity at 70.5 h is 12.9%. To `c1ccc(CCN2CCCC2c2cncc(Nc3nncs3)n2)cc1` (configuration not stated) belongs 10.6%. As for `O=C(c1cccc(O)n1)N1CCC(O)(CN2CCC(F)(F)CC2)C1` (configuration not stated), the cytotoxicity at 70.5 h is -8.18%.

Turning to `CN(C)CC(=O)N1CCOCC(Cc2ccccn2)C1` (configuration not stated), the cytotoxicity at 70.5 h was -13.2%. As to `O[C@H]1CN(Cc2ccnc(N3CCCC3)n2)CC[C@@]12CCCO2`, the cytotoxicity at 70.5 h was -9.21%. The same measure for `CCC(=O)N1CCC(c2nc(C)c3c(n2)N(C)CCC3)CC1`: -2.67%; for `CC(=O)N1CCC(c2nccnc2Nc2cnccn2)CC1`: -10.2%; for `Cc1cc(N2CCOC(c3ccc(C(N)=O)cn3)C2)ncn1` (configuration not stated): 19.9%. For `Cn1ccc(NC(=O)CN2CCC(Oc3cnccn3)CC2)n1`, the cytotoxicity at 70.5 h was found to be 1.93%.

In the case of `O=C(NC[C@H]1CC[C@H](c2ccnc3ncnn32)CC1)C1CC1`, the cytotoxicity at 70.5 h was 22.4%.

Take `CN1N=C(C(=O)NCCc2csc(-c3ccccc3)n2)CCC1=O`: the cytotoxicity at 70.5 h was -4.18%. To `CC(Cc1ccccc1F)C(=O)Nc1cccc(OCC(N)=O)c1` (configuration not stated) belongs -2.21%; to `Cc1ccc(C(=O)NS(=O)(=O)Cc2ccc(F)cc2)cc1S(C)(=O)=O`, -3.12%. Turning to `NC(=O)N1CCC(NCc2cc(C(F)(F)F)ccc2Cl)CC1`, the cytotoxicity at 70.5 h is -5.57%.

Take `O=C(CCc1nnc(-c2ccccc2)o1)N1CCCC1c1ccccn1` (configuration not stated): the cytotoxicity at 70.5 h is 1.97%. To `Cc1ccc(O)c(CNc2cccc(CN3CCSCC3)c2)n1` belongs 1.03%; to `CN(Cc1cnn(C)c1)CC(O)c1ccc2c(c1)OCCCO2` (configuration not stated), 17.4%. In the case of `CC(CNC(=O)c1cc(-n2cccn2)ccn1)Cn1ccnc1` (configuration not stated), the cytotoxicity at 70.5 h was -0.0471%.

Regarding `Cc1c(C(=O)N(C)CC(F)(F)F)nnn1-c1ccccc1Cl`, the cytotoxicity at 70.5 h was 6.88%. Take `COCCNc1ccc(CC2CCCNC2)cn1` (configuration not stated): the cytotoxicity at 70.5 h was -7.04%. The same measure for `CCn1nc(C)c(-c2cncn2Cc2ccccc2CN(C)C)c1C`: -3.79%; for `Cc1ccnn1CCC(=O)N1CCCC1c1cc2cccnc2[nH]1` (configuration not stated): 1.14%; for `OC1(c2ccc(F)cc2)CCN(Cc2ccccc2N2CCCC2)CC1`: 52.6%.

In the case of `COc1ccc(CN2CCc3sccc3C2C)cc1CN1CCOCC1` (configuration not stated), the cytotoxicity at 70.5 h was -0.0983%. For the molecule `CC(C)c1[nH]c2ncccc2c1CN1CCOCC1`, the cytotoxicity at 70.5 h was determined as 4.28%. To `CNc1nc(C2CCCN2)nc2c1CCN(S(=O)(=O)C1CCCCC1)C2` (configuration not stated) belongs 12.5%. On to `COc1cccc(Nc2nc(N3CCCC3)nc3c2CNCC3)c1`, for which the cytotoxicity at 70.5 h stood at 43.7%. For the molecule `CCc1nccn1-c1cccc(C2CCCN2)n1` (configuration not stated), the cytotoxicity at 70.5 h was -1.73%. The same measure for `Cn1nc(C2CNCCO2)cc1CCOc1ccc(Cl)cc1` (configuration not stated): 7.97%; for `CCN1CCC2(COCc3cnc(NCC4CC4)nc32)C1` (configuration not stated): -4.64%; for `O=C(c1cnoc1)N1CCC[C@]2(C[C@@H](OCc3ccccn3)CO2)C1`: -9.96%. To `COC[C@@]12CCO[C@@H]1CCN(Cc1ccccc1F)C2` belongs -9.38%; to `O=C(NCc1cn2c(n1)CN(CC1CCOCC1)CC2)C1CCC1`, -2.34%; to `O=C(CO[C@@H]1CC[C@H]2[C@H]1OCCN2CC1CCOCC1)N1CCCC1`, -0.662%. To `CCN1CC2(CC1=O)CN(Cc1cnn(C)c1)CCN(C(=O)C(C)C)C2` (configuration not stated) belongs -4.6%.

As to `CCc1ccc(CN2CCC3(CC2)CNC(=O)CO3)o1`, the cytotoxicity at 70.5 h was -3.42%. To `Cc1cccc(CN2C(=O)CO[C@@H]3CN(Cc4nccn4C)C[C@H]32)c1` belongs -3.81%; to `Cc1cccc(CN2C(=O)CO[C@@H]3CN(CCO)C[C@H]32)c1`, -3.53%. Regarding `CC(C)Nc1ccc2nc(C3CCN(C(C)C)CC3)nn2c1`, the cytotoxicity at 70.5 h is -2.64%. The same measure for `O=C(Nc1cnccn1)[C@H]1COC[C@H]2CN(C3CCCC3)C[C@H]21`: -2.04%; for `CNC(=O)CC1CC2(CCN(Cc3nccs3)CC2)c2ccccc21` (configuration not stated): 0.687%. The same measure for `CO[C@@H]1CC[C@H]2[C@H]1OCCN2CC1CCOCC1`: -2.79%; for `CC(C)Nc1ncnc2c1CCN(C(=O)Cc1ccccn1)CC2`: 26.6%. For the molecule `O=S(=O)(C1CC1)N1CCOCC2(CCN(c3ccccn3)C2)C1` (configuration not stated), the cytotoxicity at 70.5 h was determined as 36.2%. `CCN1CC2(CCNCC2)COc2ccccc2S1(=O)=O`: the cytotoxicity at 70.5 h was -15.6%. As to `c1cnc(NCc2ncn3c2CN(Cc2cccnc2)CCC3)nc1`, the cytotoxicity at 70.5 h is -2.74%.

For `Cn1cc(C(=O)NCc2cn3c(n2)CN(Cc2ccccn2)CC3)cn1`, the cytotoxicity at 70.5 h was -1.02%. Turning to `Cc1cccc(CN2CC[C@@H]3[C@@H]2CCN3C(=O)c2ccno2)n1`, the cytotoxicity at 70.5 h is -4.67%. With `CN(C)C(=O)COC[C@H]1CC[C@@H]2[C@@H](CCN2Cc2ccccn2)O1`, the cytotoxicity at 70.5 h is -7.44%. `c1cc(CN2C[C@@H]3COC[C@]3(COCC3CC3)C2)ccn1`: the cytotoxicity at 70.5 h amounted to 11.6%.

With `COCCCN(Cc1ccccn1)Cc1ccnn1C1CCCCO1` (configuration not stated), the cytotoxicity at 70.5 h was 13.4%.
